According to US12344610B2, “APOL1 inhibitors and methods of use” (Maze Therapeutics, Inc., priority 2022, dated 2025):
Read-outs that look alike come from different tables or passages of the source.

Experiments:
Type in all cases: cell-based
Conditions in all cases: geometric mean of at least 2 assay runs, † = single assay run
[1] = tested on: HEK293 cells overexpressing APOL1 G2; test: APOL1 G2 HEK293 cell rescue assay (reversal of cell death caused by overexpression of APOL1)
Summary of the method: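 Each compound tested in duplicate wells on one plate per run, with values usually the geometric mean across at least two runs on different days, occasionally from one run only. Read-out: concentration giving half-maximal rescue of APOL1 G2 overexpression-induced death of HEK293 cells.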

[2] = tested on: Trypanosoma brucei Lister 427 VSG221 with APOL1 G2 recombinant protein; test: APOL1 G2 trypanosome cell rescue assay (Example B5)
Summary of the method: (§1)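 Luminescent ATP read-out (CellTiter-Glo) of trypanosome viability after 20 h at 37° C. Bloodstream T. brucei Lister 427 VSG221, 250/well in modified HMI-9, were exposed to recombinant mature APOL1 (aa 28-398) from a 2 μg/mL addition, plus compound in 11-point 2-fold series.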

[3] = tested on: Trypanosoma brucei Lister 427 VSG221 with APOL1 G1 recombinant protein; test: APOL1 G1 trypanosome cell rescue assay (Example B5)
Summary of the method: as §1

[4] = tested on: Trypanosoma brucei Lister 427 VSG221 with APOL1 G0 recombinant protein; test: APOL1 G0 trypanosome cell rescue assay (Example B5)
Summary of the method: as §1

[5] = Homo sapiens, HEK293, HEK293 overexpressing APOL1 G2
[6] = Trypanosoma brucei, 20 h, read-out: APOL1 G2 Trypanosome Rescue EC50, Trypanosoma brucei Lister 427 VSG221 with APOL1 G2 recombinant protein, 20 hours, CellTiter-Glo
[7] = Trypanosoma brucei, 20 h, read-out: APOL1 G1 Trypanosome Rescue EC50, Trypanosoma brucei Lister 427 VSG221 with APOL1 G1 recombinant protein, 20 hours, CellTiter-Glo
[8] = Trypanosoma brucei, 20 h, read-out: APOL1 G0 Trypanosome Rescue EC50, Trypanosoma brucei Lister 427 VSG221 with APOL1 G0 recombinant protein, 20 hours, CellTiter-Glo

Structure (SMILES)	EC50 [1, 5] [nM]	EC50 [2, 6] [nM]	EC50 [3, 7] [nM]	EC50 [4, 8] [nM]	EC50 ([1]; HEK293 overexpressing APOL1 G2) [nM]	EC50 ([2]; read-out: APOL1 G2 Trypanosome Rescue EC50, Trypanosoma brucei Lister 427 VSG221 with APOL1 G2 recombinant protein, 20 hours, CellTiter-Glo) [nM]	EC50 ([3]; read-out: APOL1 G1 Trypanosome Rescue EC50, Trypanosoma brucei Lister 427 VSG221 with APOL1 G1 recombinant protein, 20 hours, CellTiter-Glo) [nM]	EC50 ([4]; read-out: APOL1 G0 Trypanosome Rescue EC50, Trypanosoma brucei Lister 427 VSG221 with APOL1 G0 recombinant protein, 20 hours, CellTiter-Glo) [nM]
CC[C@]1(O)C[C@@H](N2C(=O)CCc3cc(OCCN4CCC5(CC4)C(=O)Nc4ccc(Cl)cc45)cnc32)C1 (single isomer, unassigned) [Compound 321, 5-chloro-1′-[2-({7-oxo-8-[(cis)-3-ethyl-3-hydroxycyclobutyl]-5,6,7,8-tetrahydro-1,8-naphthyridin-3-yl}oxy)ethyl]-1,2-dihydrospiro[indole-3,4′-piperidin]-2-one]	24.1	14.3	45.9	39.6	–	–	–	–
CS(=O)(=O)c1ccc(OCCN2CCC3(CC2)C(=O)Nc2ccc(Br)cc23)cc1 [Compound 72, 5-bromo-1′-[2-(4-methanesulfonylphenoxy)ethyl]-1,2-dihydrospiro[indole-3,4′-piperidin]-2-one]	35.9	45.7	177	128	–	–	–	–
NC(=O)c1ccc(OCCN2CCC3(CC2)C(=O)Nc2ccc(Cl)cc23)cc1 [Compound 45, 4-(2-{5-chloro-2-oxo-1,2-dihydrospiro[indole-3,4′-piperidin]-1′-yl}ethoxy)benzamide]	122	162	747	476	–	–	–	–
CS(=O)(=O)c1c(F)cc(OCCN2CCC3(CC2)C(=O)Nc2ccccc23)cc1F [Compound 42, 1′-[2-(3,5-difluoro-4-methanesulfonylphenoxy)ethyl]-1,2-dihydrospiro[indole-3,4′-piperidin]-2-one]	343	406	1880	1260	–	–	–	–
C[C@]1(O)C[C@@H](N2C(=O)C3(CC3)c3cc(OCCN4CCC5(CC4)C(=O)Nc4ccc(Cl)cc45)cnc32)C1 [Compound 460, 5-chloro-1′-(2-{2′-oxo-1′-[(cis)-3-hydroxy-3-methylcyclobutyl]-1′,2′-dihydrospiro[cyclopropane-1,3′-pyrrolo[2,3-b]pyridin]-5′-yloxy}ethyl)-1,2-dihydrospiro[indole-3,4′-piperidin]-2-one]	54.1	53.7	118	104	–	–	–	–
CN(c1ccc(OCCN2CCC3(CC2)C(=O)Nc2ccc(C#N)cc23)cc1)S(C)(=O)=O [Compound 75, N-[4-(2-{5-cyano-2-oxo-1,2-dihydrospiro[indole-3,4′-piperidin]-1′-yl}ethoxy)phenyl]-N-methylmethanesulfonamide]	114	146	578	383	–	–	–	–
C[C@]1(O)C[C@@H](N2C(=O)NCc3cc(OCCN4CCC5(CC4)C(=O)Nc4ccc(Cl)cc45)cnc32)C1 [Compound 356, 5-chloro-1′-[2-({2-oxo-1-[(cis)-3-hydroxy-3-methylcyclobutyl]-1H,2H,3H,4H-pyrido[2,3-d]pyrimidin-6-yl}oxy)ethyl]-1,2-dihydrospiro[indole-3,4′-piperidin]-2-one]	50.6	37.4	113	101	–	–	–	–
C[C@]1(O)C[C@@H](n2cc3cc(OCCN4CCC5(CC4)C(=O)Nc4ccc(Cl)cc45)cc(C(F)(F)F)c3n2)C1 [Compound 427, 5-chloro-1′-[2-({2-[(cis)-3-hydroxy-3-methylcyclobutyl]-7-(trifluoromethyl)-2H-indazol-5-yl}oxy)ethyl]-1,2-dihydrospiro[indole-3,4′-piperidin]-2-one]	18.5	6.62	18.1	15.6	–	–	–	–
Cn1ncc2cc(OCCN3CCC4(CC3)C(=O)Nc3ccccc34)ccc21 [Compound 70, 1′-{2-[(1-methyl-1H-indazol-5-yl)oxy]ethyl}-1,2-dihydrospiro[indole-3,4′-piperidin]-2-one]	1050	918	> 4000	> 4000	–	–	–	–
CC(=O)N1Cc2ccc(OCCN3CCC4(CC3)C(=O)Nc3ccc(Cl)cc34)cc2C1 [Compound 57, 1′-{2-[(2-acetyl-2,3-dihydro-1H-isoindol-5-yl)oxy]ethyl}-5-chloro-1,2-dihydrospiro[indole-3,4′-piperidin]-2-one]	190	183	672	673	–	–	–	–
O=C1Nc2ccccc2C12CCN(CCOc1ccc(S(=O)(=O)C(F)F)cc1)CC2 [Compound 44, 1′-[2-(4-difluoromethanesulfonylphenoxy)ethyl]-1,2-dihydrospiro[indole-3,4′-piperidin]-2-one]	116	119	429	331	–	–	–	–
CC(c1ccc(OCCN2CCC3(CC2)C(=O)Nc2ccc(Cl)cc23)cc1)S(C)(=O)=O (single isomer, unassigned) [Compound 39, 5-chloro-1′-(2-{4-[(1S) or (1R)-1-methanesulfonylethyl]phenoxy}ethyl)-1,2-dihydrospiro[indole-3,4′-piperidin]-2-one]	56.7	53	206	156	–	–	–	–
CS(=O)(=O)c1ccc(OCCN2CCC3(CC2)C(=O)Nc2ccc(C#N)cc23)cc1 [Compound 71, 1′-[2-(4-methanesulfonylphenoxy)ethyl]-2-oxo-1,2-dihydrospiro[indole-3,4′-piperidine]-5-carbonitrile]	345	205	1360	814	–	–	–	–
C[C@]1(O)C[C@@H](n2ccc3cc(OCCN4CCC5(CC4)C(=O)Nc4ccc(Cl)cc45)cnc32)C1 [Compound 349, 5-chloro-1′-[2-({1-[(cis)-3-hydroxy-3-methylcyclobutyl]-1H-pyrrolo[2,3-b]pyridin-5-yl}oxy)ethyl]-1,2-dihydrospiro[indole-3,4′-piperidin]-2-one]	25.4	33.1	89.8	64.6	–	–	–	–
[2H]C([2H])(Oc1cnc2c(c1)CCC(=O)N2[C@H]1C[C@@](C)(O)C1)C([2H])([2H])N1CCC2(CC1)C(=O)Nc1ccc(Cl)cc12 [Compound 426, 5-chloro-1′-[2-({7-oxo-8-[(cis)-3-hydroxy-3-methylcyclobutyl]-5,6,7,8-tetrahydro-1,8-naphthyridin-3-yl}oxy)(1,1,2,2-^2H4)ethyl]-1,2-dihydrospiro[indole-3,4′-piperidin]-2-one]	37.8	36.7	88.8	71	–	–	–	–
CNC(=O)N1CCCc2cc(OCCN3CCC4(CC3)C(=O)Nc3ccc(Cl)cc34)ccc21 [Compound 60, 6-(2-{5-chloro-2-oxo-1,2-dihydrospiro[indole-3,4′-piperidin]-1′-yl}ethoxy)-N-methyl-1,2,3,4-tetrahydroquinoline-1-carboxamide]	62.7	66	228	189	–	–	–	–
CC(C)[C@]1(O)C[C@@H](N2C(=O)CCc3cc(OCCN4CCC5(CC4)C(=O)Nc4ccc(Cl)cc45)cnc32)C1 [Compound 317, 5-chloro-1′-[2-({7-oxo-8-[(cis)-3-hydroxy-3-(propan-2-yl)cyclobutyl]-5,6,7,8-tetrahydro-1,8-naphthyridin-3-yl}oxy)ethyl]-1,2-dihydrospiro[indole-3,4′-piperidin]-2-one]	23.9	11.5	33.5	33	–	–	–	–
CC1(O)CC(c2ncc(OCCN3CCC4(CC3)C(=O)Nc3ccc(Cl)cc34)cn2)C1 (single isomer, unassigned) [Compound 393, 5-chloro-1′-[2-({2-[(cis) or (trans)-3-hydroxy-3-methylcyclobutyl]pyrimidin-5-yl}oxy)ethyl]-1,2-dihydrospiro[indole-3,4′-piperidin]-2-one]	–	–	–	–	80.5	120	360	300
CC1(O)CC2(CN(c3ncc(OCCN4CCC5(CC4)C(=O)Nc4ccc(Cl)cc45)cn3)C2)C1 [Compound 459, 5-chloro-1′-{2-[(2-{6-hydroxy-6-methyl-2-azaspiro[3.3]heptan-2-yl}pyrimidin-5-yl)oxy]ethyl}-1,2-dihydrospiro[indole-3,4′-piperidin]-2-one]	29	49.8	133	101	–	–	–	–
C[C@]1(O)C[C@@H](N2C(=O)CCc3cc(OCCN4CCC5(CC4)C(=O)Nc4ccc(OC(F)F)cc45)cnc32)C1 [Cmpd 325, 5-(difluoromethoxy)-1′-[2-({7-oxo-8-[(cis)-3-hydroxy-3-methylcyclobutyl]-5,6,7,8-tetrahydro-1,8-naphthyridin-3-yl}oxy)ethyl]-1,2-dihydrospiro[indole-3,4′-piperidin]-2-one]	86.4	77.5	269	213	–	–	–	–
